Measurements published in EP1247803A2, “Indolinone compounds suitable for modulation of protein kinases” (Sugen, Inc., priority 1996, dated 1998).

Columns and labels:
[1] = biological target: T1, FLK-1 receptor (Mus musculus, UniProt P35918); test: FLK-1 ELISA (kinase activity of the FLK-1 receptor in FLK-1/NIH3T3 cells, VEGF stimulated); type: cell-based
T1 construct: expressed in transfected cells; host or cells: NIH3T3 C7#3
How it was run: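 NIH3T3 C7#3 cells expressing FLK-1 were seeded at 25.000 cells/well, serum-starved overnight in 0.1% FBS, then treated with compound for two hours at 37°C (final DMSO 0.5%) before VEGF stimulation. Receptor was captured on anti-rabbit IgG-coated ELISA plates bearing affinity-purified anti-FLK-1 antiserum.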

[2] = tested on: MET; test: MET biochemical kinase assay; design: species or system human; concentration or dose not given beside the values
How it was run: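 In this format, tyrosine phosphorylation of plate-captured human MET is followed in vitro after compound addition in ATP/divalent-cation buffer, detected by anti-phosphotyrosine-HRP with TMB substrate.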

T1 sequence (P35918 20-1345): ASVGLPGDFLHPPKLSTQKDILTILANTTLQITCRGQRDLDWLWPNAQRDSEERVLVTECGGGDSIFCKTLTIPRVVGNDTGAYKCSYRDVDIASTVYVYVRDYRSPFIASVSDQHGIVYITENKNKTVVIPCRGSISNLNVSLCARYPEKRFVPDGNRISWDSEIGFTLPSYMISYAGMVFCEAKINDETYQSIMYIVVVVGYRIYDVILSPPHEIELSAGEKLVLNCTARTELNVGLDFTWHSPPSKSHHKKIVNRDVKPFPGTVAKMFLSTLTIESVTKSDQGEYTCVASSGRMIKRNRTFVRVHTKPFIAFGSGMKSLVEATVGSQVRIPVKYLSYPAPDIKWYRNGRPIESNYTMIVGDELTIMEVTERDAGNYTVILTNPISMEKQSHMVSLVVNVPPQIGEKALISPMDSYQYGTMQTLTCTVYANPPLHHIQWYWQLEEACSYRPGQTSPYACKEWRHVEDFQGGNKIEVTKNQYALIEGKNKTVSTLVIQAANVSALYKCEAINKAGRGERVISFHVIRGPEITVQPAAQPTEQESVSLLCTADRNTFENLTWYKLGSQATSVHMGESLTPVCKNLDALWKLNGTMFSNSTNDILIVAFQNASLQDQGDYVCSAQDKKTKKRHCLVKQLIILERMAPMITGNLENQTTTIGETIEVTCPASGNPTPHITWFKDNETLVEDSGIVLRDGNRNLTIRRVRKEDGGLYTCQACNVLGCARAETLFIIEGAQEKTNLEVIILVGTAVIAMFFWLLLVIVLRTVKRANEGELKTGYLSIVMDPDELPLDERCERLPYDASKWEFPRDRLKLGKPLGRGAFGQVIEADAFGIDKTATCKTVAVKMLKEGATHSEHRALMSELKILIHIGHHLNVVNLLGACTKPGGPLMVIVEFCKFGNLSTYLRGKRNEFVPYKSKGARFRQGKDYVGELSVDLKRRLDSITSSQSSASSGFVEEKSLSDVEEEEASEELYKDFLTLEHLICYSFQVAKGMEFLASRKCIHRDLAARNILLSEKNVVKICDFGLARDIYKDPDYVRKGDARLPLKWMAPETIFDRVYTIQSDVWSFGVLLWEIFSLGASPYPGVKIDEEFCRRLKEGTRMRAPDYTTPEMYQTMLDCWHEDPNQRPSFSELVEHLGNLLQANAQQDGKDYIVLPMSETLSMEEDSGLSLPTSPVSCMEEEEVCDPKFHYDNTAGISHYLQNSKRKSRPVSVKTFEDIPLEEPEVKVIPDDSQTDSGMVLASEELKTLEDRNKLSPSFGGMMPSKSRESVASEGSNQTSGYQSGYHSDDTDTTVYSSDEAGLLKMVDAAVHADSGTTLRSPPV

SMILES	Fik Kinase %Inhibition [1]	Met Kinase % Inhibition [2]
Cc1ccc(C=C2C(=O)Nc3ccc(Br)c(C)c32)s1 [10717/C07]	1.6%	16.5%
COc1ccc(C=C2C(=O)Nc3ccc(S(=O)(=O)Nc4ccc(C(F)(F)F)cc4)cc32)cc1OC [10720/E04]	18.4%	46.7%
Cc1cc(C)c(C=C2C(=O)Nc3ccc(Br)c(C)c32)[nH]1 [10721/C08]	55.8%	24.8%
CC(C)(C)c1cc(C=C2C(=O)Nc3ccc(I)cc32)cc(C(C)(C)C)c1O [10721/B11]	-2.1%	6.7%
CNS(=O)(=O)c1ccc2c(c1)C(=Cc1cc3c([nH]1)CCCC3)C(=O)N2 [10721/D05]	-25.1%	91.9%
Cn1c(C=C2C(=O)Nc3c(Br)cc(Br)cc32)nc2ccccc21 [10721/A02]	10.6%	41.1%
Cc1c(Br)ccc2c1C(=Cc1ccc[nH]1)C(=O)N2 [10717/C09]	77.1%	47.7%
CNS(=O)(=O)c1ccc2c(c1)C(=Cc1ccccc1)C(=O)N2 [10720/D06]	10.1%	31.8%
Cn1cc(Cl)c(C=C2C(=O)Nc3c(Br)cc(Br)cc32)n1 [10721/A03]	11.4%	56.2%
COc1cc(O)ccc1C=C1C(=O)Nc2ccc(CCCl)cc21 [10720/G03]	2.6%	42.1%
CNS(=O)(=O)c1ccc2c(c1)C(=Cc1ccc(OC)c(OC)c1)C(=O)N2 [10720/D04]	15.6%	23.6%
O=C1Nc2c(Br)cc(Br)cc2C1=Cc1cc([N+](=O)[O-])cc(CCl)c1O [10721/A06]	6.4%	81.3%
COc1ccc(O)c(C=C2C(=O)Nc3ccc(CCCl)cc32)c1 [10720/G10]	-36.6%	55.9%
CCOc1cc(C=C2C(=O)Nc3ccc(CCCl)cc32)ccc1O [10720/G09]	2.1%	49.5%
CNS(=O)(=O)c1ccc2c(c1)C(=Cc1ccc(SC)s1)C(=O)N2 [10720/D07]	11.8%	36.2%
CC(C)(C)c1cc(C=C2C(=O)Nc3c(Br)cc(Br)cc32)ccc1O [10721/A09]	10.9%	23.0%
O=C1Nc2ccc(S(=O)(=O)Nc3ccc(C(F)(F)F)cc3)cc2C1=Cc1c(F)cc(F)cc1F [10720/E02]	5.7%	18.0%
CNS(=O)(=O)c1ccc2c(c1)C(=Cc1c(C)cc(O)cc1O)C(=O)N2 [10720/D08]	3.3%	42.1%
O=C1Nc2ccc(I)cc2C1=Cc1cc2c([nH]1)CCCC2 [10721/B05]	45.9%	70.8%
CCOc1cc(C=C2C(=O)Nc3ccc(S(=O)(=O)NC)cc32)ccc1O [10720/D09]	5.8%	62.8%
Cc1[nH]c(C=C2C(=O)Nc3ccc(Br)c(C)c32)c(Br)c1Br [10717/C11]	4.6%	71.8%
Cc1c(Br)ccc2c1C(=Cc1c[nH]c3ccccc13)C(=O)N2 [10717/C06]	7.6%	44.1%
Cc1c(Br)ccc2c1C(=Cc1cccn1C)C(=O)N2 [10717/C04]	-0.8%	25.0%
Cc1c(Br)ccc2c1C(=Cc1ccc(F)cc1)C(=O)N2 [10717/C05]	-2.3%	44.6%
CC(C)(C)c1cc(C=C2C(=O)Nc3c(Br)cc(Br)cc32)cc(C(C)(C)C)c1O [10721/A11]	4.8%	23.9%
CC(C)(C)c1cc(C=C2C(=O)Nc3ccc(I)cc32)ccc1O [10721/B09]	9.0%	28.3%

SMILES	Fik Kinase %Inhibition [1]	Met Kinase % Inhibition [2]
COc1ccc(O)c(C=C2C(=O)Nc3ccc(S(=O)(=O)Nc4ccc(C(F)(F)F)cc4)cc32)c1 [10720/E10]	-4.1%	23.1%
Cc1c(Br)ccc2c1C(=Cc1cc3c([nH]1)CCCC3)C(=O)N2 [10721/C05]	56.4%	48.7%
Cc1c(Br)ccc2c1C(=Cc1nc3ccccc3n1C)C(=O)N2 [10721/C02]	9.7%	59.2%
O=C1Nc2c(Br)cc(Br)cc2C1=Cc1ccc(Cl)s1 [10721/A07]	-4.7%	29.7%
CNS(=O)(=O)c1ccc2c(c1)C(=Cc1ccccc1O)C(=O)N2 [10720/D05]	4.8%	9.8%
CNS(=O)(=O)c1ccc2c(c1)C(=Cc1cc([N+](=O)[O-])cc(CCl)c1O)C(=O)N2 [10721/D06]	1.6%	9.0%
O=C1Nc2c(Br)cc(Br)cc2C1=Cc1cc2c([nH]1)CCCC2 [10721/A05]	12.5%	52.9%
CNS(=O)(=O)c1ccc2c(c1)C(=Cc1nc3ccccc3n1C)C(=O)N2 [10721/D02]	15.1%	22.5%
Cc1cc(O)cc(O)c1C=C1C(=O)Nc2ccc(S(=O)(=O)N3CCOCC3)cc21 [10720/F08]	-4.1%	36.2%
O=C1Nc2ccc(S(=O)(=O)N3CCOCC3)cc2C1=Cc1ncc[nH]1 [10720/F11]	5.0%	1.6%
O=C1Nc2ccc(CCCl)cc2C1=Cc1ncc[nH]1 [10720/G11]	-18.0%	36.2%
O=C1Nc2ccc(S(=O)(=O)Nc3ccc(C(F)(F)F)cc3)cc2C1=Cc1ccccc1O [10720/E05]	-13.8%	55.4%
CC(C)(C)c1cc(C=C2C(=O)Nc3c(Br)cc(Br)cc32)cc(Br)c1O [10721/A10]	5.2%	68.9%
O=C1Nc2ccc(S(=O)(=O)N3CCOCC3)cc2C1=Cc1ccccc1O [10720/F05]	-3.6%	39.8%
COc1cc(O)ccc1C=C1C(=O)Nc2ccc(S(=O)(=O)N3CCOCC3)cc21 [10720/F03]	10.6%	44.1%
CNS(=O)(=O)c1ccc2c(c1)C(=Cc1cc(C)c(C)s1)C(=O)N2 [10721/D04]	15.2%	35.3%
CC(C)(C)c1cc(C=C2C(=O)Nc3ccc(I)cc32)cc(Br)c1O [10721/B10]	20.9%	30.4%
Cc1cc(O)cc(O)c1C=C1C(=O)Nc2ccc(CCCl)cc21 [10720/G08]	-17.9%	26.7%
CCOc1ccccc1C=C1C(=O)Nc2c(Br)cc(Br)cc21 [10717/A02]	0.1%	46.1%
CNS(=O)(=O)c1ccc2c(c1)C(=Cc1cc(OC)ccc1O)C(=O)N2 [10720/D10]	-6.6%	51.0%
CSc1ccc(C=C2C(=O)Nc3ccc(S(=O)(=O)N4CCOCC4)cc32)s1 [10720/F07]	4.6%	64.6%
O=C1Nc2ccc(CCCl)cc2C1=Cc1ccccc1O [10720/G05]	-2.9%	37.0%
O=C1Nc2ccc(S(=O)(=O)Nc3ccc(C(F)(F)F)cc3)cc2C1=Cc1ccccc1 [10720/E06]	25.5%	33.1%
Cc1c(Br)ccc2c1C(=Cc1ccc(Br)cc1)C(=O)N2 [10717/C08]	7.0%	27.3%
Cc1c(Br)ccc2c1C(=Cc1cc(C(C)(C)C)c(O)c(C(C)(C)C)c1)C(=O)N2 [10721/C11]	13.9%	3.7%
CSc1ccc(C=C2C(=O)Nc3ccc(CCCl)cc32)s1 [10720/G07]	5.1%	12.9%
